The values below come from patent US11433111B2 (priority 2019, dated 2022).

For the assay, the system named is scopolamine induced memory impairment in male Swiss albino mice. The assay can be described thus: Passive avoidance test, scopolamine induced memory impairment. The settings on record: 5 mg/kg p.o.; scopolamine 1 mg/kg i.p.; mean ± SEM of six mice.

Description: The rectangular larger compartment has 50 cm×50 cm grid floor and wooden walls of 35 cm height. The box was illuminated with a 100-W bulb placed 150 cm above the center. It has a roof, which can be opened or closed. One of the walls has a 6 cm×6 cm opening which to a dark smaller compartment having dimensions of 15 cm×15 cm. This compartment is provided with an electrifiable grid, which is connected to a constant current stimulator, and a ceiling that can be opened or closed. The connection between the two compartments can be closed with a sliding door made of transparent Plexiglas. […] The experiment was divided into three parts: An exploration test, Learning (Electric shock), and Retention testing.
The exploration test is done in three trials. During this, mice are placed in the center of the larger compartment facing away from the entrance to the dark compartment. The door between the two compartments is kept open. The mice are allowed to explore the apparatus (both larger and smaller compartments) for 3 minutes. In each trial, two things will be examined: Time taken by the mice to enter the dark compartment at each trial; and the total time spent by the animal in the dark compartment, using a stop-watch.
After the last exploration trial, the mice are placed in the larger compartment as done in the trial sessions. […]

For `COc1cc2c(cc1OC)C(=O)C(CC1CCN(Cc3ccccc3)CC1)C2` (stereo not shown) [Donepezil], the No. of crossings is recorded as 1.17 ± 0.17.
